Reference: PubChem BioAssay AID328 (DTP/NCI, 2004)
Toxic doses and inconclusive results are not listed.

System: BDF1 mice, P388 leukemia ip, median survival T/C
Assay: NCI In Vivo Anticancer Drug Screen. Data for tumor model P388 Leukemia (intraperitoneal) in B6D2F1 (BDF1) mice
Details: endpoint: median survival time, higher = longer survival
In short: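 Read-out is survival of treated animals expressed relative to the vehicle group, as a T/C ratio.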

[1] = dose: 6.25 mg/kg/injection, schedule: Q01DX009 (ip), vehicle: saline with Tween-80
[2] = dose: 12.5 mg/kg/injection, schedule: Q01DX009 (ip), vehicle: saline with Tween-80
[3] = dose: 25.0 mg/kg/injection, schedule: Q01DX009 (ip), vehicle: saline with Tween-80
[4] = dose: 50.0 mg/kg/injection, schedule: Q01DX009 (ip), vehicle: saline with Tween-80
[5] = dose: 50.0 mg/kg/injection, schedule: Q01DX009 (ip), vehicle: saline
[6] = dose: 100.0 mg/kg/injection, schedule: Q01DX009 (ip), vehicle: saline
[7] = dose: 100.0 mg/kg/injection, schedule: Q01DX009 (ip), vehicle: saline with Tween-80
[8] = dose: 200.0 mg/kg/injection, schedule: Q01DX009 (ip), vehicle: saline with Tween-80
[9] = dose: 400.0 mg/kg/injection, schedule: Q01DX009 (ip), vehicle: saline with Tween-80
[10] = dose: 50.0 mg/kg/injection, schedule: Q04DX003 (ip), vehicle: Klucel (hydroxypropylcellulose) (HPC)
[11] = dose: 100.0 mg/kg/injection, schedule: Q04DX003 (ip), vehicle: Klucel (hydroxypropylcellulose) (HPC)
[12] = dose: 25.0 mg/kg/injection, schedule: Q04DX003 (ip), vehicle: saline with Tween-80
[13] = dose: 50.0 mg/kg/injection, schedule: Q04DX003 (ip), vehicle: saline with Tween-80
[14] = dose: 6.25 mg/kg/injection, schedule: Q01DX009 (ip), vehicle: saline
[15] = dose: 100.0 mg/kg/injection, schedule: Q04DX003 (ip), vehicle: saline with Tween-80
[16] = dose: 100.0 mg/kg/injection, schedule: Q01DX009 (ip), vehicle: Klucel (hydroxypropylcellulose) (HPC)
[17] = dose: 12.5 mg/kg/injection, schedule: Q01DX009 (ip), vehicle: saline

With `Cc1c(C=[N+]2CCCCC2)c2ccccc2n1C` the T/C [1] was 96 % of control, the T/C [2] was 105 % of control and the T/C [3] was 93 % of control. The T/C [4] was 99 % of control.
For `Cc1ccc(OC(=O)Nc2ccc(C(=O)O)c(O)c2)cc1`, the T/C [5] was 118 % of control, the T/C [6] was 109 % of control and the T/C (dose: 100.0 mg/kg/injection, schedule: Q04DX003 (ip), vehicle: saline) was 100 % of control. The T/C (dose: 200.0 mg/kg/injection, schedule: Q04DX003 (ip), vehicle: saline) was 113 % of control.
For `O=C(CC(NC(=O)OCc1ccccc1)C(=O)OCc1ccccc1)OCc1ccccc1` (configuration not stated), the T/C [7] was 97 % of control, the T/C [8] was 108 % of control and the T/C [9] was 97 % of control.
With `COC(OC)c1[nH]c(=S)[nH]c(=O)c1Cc1cc(C)ccc1C` the T/C [10] was 95 % of control, the T/C (dose: 100.0 mg/kg/injection, schedule: Q01DX001 (ip), vehicle: Klucel (hydroxypropylcellulose) (HPC)) was 104 % of control and the T/C [11] was 100 % of control. The T/C (dose: 200.0 mg/kg/injection, schedule: Q01DX001 (ip), vehicle: Klucel (hydroxypropylcellulose) (HPC)) was 104 % of control, the T/C (dose: 200.0 mg/kg/injection, schedule: Q04DX003 (ip), vehicle: Klucel (hydroxypropylcellulose) (HPC)) was 95 % of control and the T/C (dose: 400.0 mg/kg/injection, schedule: Q01DX001 (ip), vehicle: Klucel (hydroxypropylcellulose) (HPC)) was 109 % of control.
In the case of `CC(C(=O)O)c1ccccc1` (configuration not stated), the T/C (dose: 50.0 mg/kg/injection, schedule: Q01DX009 (ip), vehicle: other) is reported as 101 % of control, the T/C (dose: 100.0 mg/kg/injection, schedule: Q01DX009 (ip), vehicle: other) is reported as 106 % of control and the T/C (dose: 200.0 mg/kg/injection, schedule: Q01DX009 (ip), vehicle: other) is reported as 110 % of control.
In the case of `CC(C)CC(CC(C)C)NCC(C)OC(=O)c1ccc(N)cc1` (configuration not stated), the T/C [1] is reported as 104 % of control, the T/C (dose: 6.25 mg/kg/injection, schedule: Q04DX003 (ip), vehicle: saline with Tween-80) is reported as 107 % of control and the T/C [2] is reported as 93 % of control. The T/C (dose: 12.5 mg/kg/injection, schedule: Q04DX003 (ip), vehicle: saline with Tween-80) was 114 % of control, the T/C [3] was 104 % of control and the T/C [12] was 114 % of control. The T/C [13] was 114 % of control.
With `OC(c1cc(C(F)(F)F)nc2c(F)cccc12)C1CCCCN1` (configuration not stated) the T/C (dose: 100.0 mg/kg/injection, schedule: Q01DX001 (ip), vehicle: saline with Tween-80) was 91 % of control, the T/C (dose: 200.0 mg/kg/injection, schedule: Q01DX001 (ip), vehicle: saline with Tween-80) was 95 % of control and the T/C (dose: 400.0 mg/kg/injection, schedule: Q01DX001 (ip), vehicle: saline with Tween-80) was 100 % of control.
`O=C(/C=C/c1ccccc1Cl)NCC(O)CO` (configuration not stated) was tested, and the T/C [4] was 100 % of control, the T/C [7] was 100 % of control and the T/C [8] was 95 % of control. The T/C (dose: 400.0 mg/kg/injection, schedule: Q01DX009 (ip), vehicle: other) was 91 % of control and the T/C [9] was 90 % of control.
`OCCOCCOCCN1CCN(CCCN2c3ccccc3Sc3ccc(C(F)(F)F)cc32)CC1` was tested, and the T/C (dose: 0.79 mg/kg/injection, schedule: Q01DX009 (ip), vehicle: saline) was 91 % of control and the T/C [14] was 112 % of control.
In the case of `CCC[CH2][Sn](=[S])[CH2]CCC`, the T/C (dose: 0.59 mg/kg/injection, schedule: Q01DX009 (ip), vehicle: other) is reported as 111 % of control, the T/C (dose: 1.33 mg/kg/injection, schedule: Q01DX009 (ip), vehicle: other) is reported as 115 % of control and the T/C (dose: 1.56 mg/kg/injection, schedule: Q04DX003 (ip), vehicle: other) is reported as 109 % of control. For the same compound, the T/C (dose: 2.66 mg/kg/injection, schedule: Q04DX003 (ip), vehicle: other) was 109 % of control, the T/C (dose: 3.13 mg/kg/injection, schedule: Q04DX003 (ip), vehicle: other) was 116 % of control and the T/C (dose: 6.25 mg/kg/injection, schedule: Q04DX003 (ip), vehicle: other) was 156 % of control. The T/C (dose: 200.0 mg/kg/injection, schedule: Q01DX010 (ip), vehicle: carboxymethylcellulose (CMC)) was 110 % of control.
`CC1=NN(CCO)C(=O)C1` was tested, and the T/C [4] was 95 % of control, the T/C [7] was 92 % of control and the T/C [8] was 93 % of control.
For `CCOC(=O)C(C(=O)OCC)=C(C)OCC`, the T/C [1] was 106 % of control, the T/C [2] was 86 % of control and the T/C [3] was 97 % of control. The T/C [12] was 99 % of control, the T/C [4] was 97 % of control and the T/C [13] was 107 % of control. The T/C [7] was 106 % of control, the T/C [15] was 90 % of control and the T/C (dose: 200.0 mg/kg/injection, schedule: Q04DX003 (ip), vehicle: saline with Tween-80) was 107 % of control.
In the case of `CCn1nnc2c(N(C)C)nc(N)nc21`, the T/C (dose: 25.0 mg/kg/injection, schedule: Q01DX009 (ip), vehicle: Klucel (hydroxypropylcellulose) (HPC)) is reported as 92 % of control, the T/C (dose: 50.0 mg/kg/injection, schedule: Q01DX009 (ip), vehicle: Klucel (hydroxypropylcellulose) (HPC)) is reported as 92 % of control and the T/C [10] is reported as 100 % of control. For the same compound, the T/C [16] was 92 % of control and the T/C [11] was 104 % of control.
For `Nc1cc(Cl)c2[nH]cnc2n1`, the T/C [14] was 114 % of control, the T/C [17] was 100 % of control and the T/C (dose: 25.0 mg/kg/injection, schedule: Q01DX009 (ip), vehicle: saline) was 110 % of control. The T/C (dose: 50.0 mg/kg/injection, schedule: Q01DX005 (ip), vehicle: distilled water + Tween-80) was 105 % of control, the T/C [5] was 115 % of control and the T/C [6] was 100 % of control.
`O=C(N/N=C\c1ccc(N(CCCl)CCCl)cc1)c1cccnc1` was tested, and the T/C (dose: 100.0 mg/kg/injection, schedule: Q01DX009 (ip), vehicle: gum acacia) was 112 % of control and the T/C (dose: 200.0 mg/kg/injection, schedule: Q01DX009 (ip), vehicle: gum acacia) was 172 % of control.
For `C=C(C(=O)OC1C/C(C)=C/C(O)C/C(C)=C/C2OC(=O)C(=C)C21)C(C)O` (configuration not stated), the T/C (dose: 100.0 mg/kg/injection, schedule: Q04DX002 (ip), vehicle: Klucel (hydroxypropylcellulose) (HPC)) was 120 % of control.
In the case of `CCC(=O)c1ccc(OCC(O)CN2CCC(O)(c3ccccc3)CC2)cc1` (configuration not stated), the T/C [3] is reported as 111 % of control, the T/C [12] is reported as 109 % of control and the T/C [4] is reported as 103 % of control. The T/C [13] was 109 % of control, the T/C [7] was 88 % of control and the T/C [15] was 104 % of control.
For `O=C(Nc1ccccc1)OCCBr`, the T/C [4] was 99 % of control, the T/C [7] was 107 % of control and the T/C [8] was 107 % of control.
With `Nc1nc2ccccc2[nH]1` the T/C [5] was 105 % of control and the T/C [6] was 102 % of control.
With `CNc1ccccc1C#N` the T/C [16] was 100 % of control, the T/C [11] was 91 % of control and the T/C (dose: 200.0 mg/kg/injection, schedule: Q01DX009 (ip), vehicle: Klucel (hydroxypropylcellulose) (HPC)) was 100 % of control. For the same compound, the T/C (dose: 400.0 mg/kg/injection, schedule: Q04DX003 (ip), vehicle: Klucel (hydroxypropylcellulose) (HPC)) was 91 % of control.
With `CNC(=O)O/N=C(\CN=[N+]=[N-])C(C)(C)C` the T/C (dose: 0.2 mg/kg/injection, schedule: Q01DX009 (ip), vehicle: saline) was 92 % of control, the T/C (dose: 0.39 mg/kg/injection, schedule: Q01DX009 (ip), vehicle: saline) was 88 % of control and the T/C (dose: 0.78 mg/kg/injection, schedule: Q01DX009 (ip), vehicle: saline) was 122 % of control.
With `CC(=O)c1ccc2c(c1)N(CCCN1CCN(CCO)CC1)c1ccccc1S2` the T/C (dose: 3.12 mg/kg/injection, schedule: Q01DX009 (ip), vehicle: saline) was 107 % of control, the T/C [14] was 96 % of control and the T/C [17] was 94 % of control.
`COc1ccc(SC/C(=N\NOS(=O)(=O)c2ccc(C)cc2)c2ccccc2)cc1` was tested, and the T/C [5] was 96 % of control, the T/C [6] was 98 % of control and the T/C (dose: 200.0 mg/kg/injection, schedule: Q01DX009 (ip), vehicle: saline) was 109 % of control.
In the case of `OCC(O)CCBr` (configuration not stated), the T/C (dose: 264.0 mg/kg/injection, schedule: Q01DX009 (ip), vehicle: saline with Tween-80) is reported as 150 % of control, the T/C [9] is reported as 170 % of control and the T/C (dose: 600.0 mg/kg/injection, schedule: Q01DX009 (ip), vehicle: saline with Tween-80) is reported as 208 % of control.
